Laboratory results reported in patent publication US20240391965A1, “STAPLED ANTIMICROBIAL PEPTIDES (STAMPS) AND USES THEREOF” (Lytica Therapeutics, Inc., priority 2021, published 2024).
≈ marks a conversion by molar mass, not a printed value. Starred links: 1 amine or outer side, 2 acyl side, 3 side chain; linkers in the order of their positions; H or OH if unused. Positions of bridges follow the written chain, without caps; N, C: chain ends. Residues, ends and D or L forms follow the SMILES beside them. 2,2'Bipyridine(5,5'-diCH2) = c1cc(-c2ccc(C[*:2])cn2)ncc1C[*:1]; Naphthalene(2,6-diCH2) = c1cc2cc(C[*:2])ccc2cc1C[*:1]

Assays:
[1] = tested on: Acinetobacter baumannii (A. baumannii); format: cell-based; details: microbroth dilution, 20-24 hours at 37° C.
Protocol: (§1) Antimicrobial Activity Assay: The following microbroth dilution protocol was adapted from CLSI to determine the minimum inhibitory concentration (MIC) of StAMPs. Briefly, Mueller-Hinton broth (MHB) or cation-adjusted Mueller-Hinton broth (MHB II) was prepared and autoclaved. Then, a colony of bacterial cells was picked and grown overnight in broth at 37° C. and then diluted and allowed to grow again for 3-4 hours. Serial dilutions of peptide stocks in water (10 μl) were prepared using clear round-bottom polypropylene 96-well plates. Then 90 μl of bacteria in broth was added to give a final inoculum of 5×10^5 CFU/ml. The plates were then covered with porous tape to reduce evaporation and incubated for 20-24 hours at 37° C. The MIC was the minimum peptide concentration at which no visible bacterial growth was observed.

[2] = tested on: Escherichia coli (E. coli); format: cell-based; details: microbroth dilution, 20-24 hours at 37° C.
Protocol: as §1

[3] = tested on: Klebsiella pneumoniae (K. pneumoniae); format: cell-based; details: microbroth dilution, 20-24 hours at 37° C.
Protocol: as §1

[4] = tested on: Pseudomonas aeruginosa (P. aeruginosa); format: cell-based; details: microbroth dilution, 20-24 hours at 37° C.
Protocol: as §1

[5] = tested on: Staphylococcus aureus (S. aureus); format: cell-based; details: microbroth dilution, 20-24 hours at 37° C.
Protocol: as §1

[6] = 48 hours cytotoxicity assay (CellTiter-Glo), liver toxicity; format: cell-based, human; details: 48 hours of incubation, CellTiter-Glo; read-out: Inhibitory Concentration at 50% Cytotoxicity (IC50) Human Liver Cells (HepG2)
Procedure, shortened: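 Viability from CellTiter-Glo luminescence after StAMP dilution series or vehicle acted on HepG2 cells for 48 h at 37 °C. Cells were grown in EMEM plus 10% FBS and given 4 h to attach before dosing.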

Structure (SMILES): CC[C@H](C)[C@H](NC(=O)CN)C(=O)N[C@@H](Cc1ccccc1)C(=O)N[C@@H](CO)C(=O)N[C@@H](CCCCN)C(=O)N[C@@H](CC(C)C)C(=O)N[C@@H](C)C(=O)NCC(=O)N[C@H]1CSCc2ccc3cc(ccc3c2)CSC[C@@H](C(=O)N[C@@H](CO)C(=O)NCC(=O)N[C@@H](CC(C)C)C(=O)N[C@@H](CCCCN)C(=O)NCC(N)=O)NC(=O)[C@H](CC(C)C)NC(=O)[C@H](CC(C)C)NC(=O)[C@H](CC(N)=O)NC(=O)[C@H](CCCCN)NC(=O)[C@H]([C@@H](C)CC)NC(=O)[C@H](CCCCN)NC1=O [compound 69] (H-GIFSKLAGCKIKNLLCSGLKG-NH2; linker 9-16 via Naphthalene(2,6-diCH2); N-terminus assumed)
- Minimum Inhibitory Concentration (MIC) A. baumannii [1]: 16 mg/L
- Minimum Inhibitory Concentration (MIC) E. coli [2]: 16 mg/L
- Minimum Inhibitory Concentration (MIC) K. pneumoniae [3]: 32 mg/L
- Minimum Inhibitory Concentration (MIC) P. aeruginosa [4]: >64 mg/L
- Minimum Inhibitory Concentration (MIC) S. aureus [5]: >64 mg/L
- IC50 [6]: 52 mg/L (≈ 22.6 µM)

Structure (SMILES): CC[C@H](C)[C@H](NC(=O)CN)C(=O)N[C@@H](Cc1ccccc1)C(=O)N[C@@H](CO)C(=O)N[C@@H](CCCCN)C(=O)N[C@H]1CSCc2ccc3cc(ccc3c2)CSC[C@@H](C(=O)N[C@@H](CC(C)C)C(=O)N[C@@H](CC(C)C)C(=O)N[C@H](C(=O)N[C@@H](CO)C(=O)NCC(=O)N[C@@H](CC(C)C)C(=O)N[C@@H](CCCCN)C(=O)NCC(N)=O)[C@@H](C)CC)NC(=O)[C@H](CCCCN)NC(=O)[C@H]([C@@H](C)CC)NC(=O)[C@H](CCCCN)NC(=O)[C@H](CCCCN)NC(=O)CNC(=O)[C@H](C)NC1=O [compound 64] (H-GIFSKCAGKKIKCLLISGLKG-NH2; linker 6-13 via Naphthalene(2,6-diCH2))
- Minimum Inhibitory Concentration (MIC) A. baumannii [1]: 8 mg/L
- Minimum Inhibitory Concentration (MIC) E. coli [2]: 8 mg/L
- Minimum Inhibitory Concentration (MIC) K. pneumoniae [3]: 16 mg/L
- Minimum Inhibitory Concentration (MIC) P. aeruginosa [4]: >64 mg/L
- Minimum Inhibitory Concentration (MIC) S. aureus [5]: >64 mg/L
- IC50 [6]: 53 mg/L (≈ 22.9 µM)

Structure (SMILES): CC[C@H](C)[C@H](NC(=O)CN)C(=O)N[C@@H](Cc1ccccc1)C(=O)N[C@@H](CO)C(=O)N[C@@H](CCCCN)C(=O)N[C@@H](CC(C)C)C(=O)N[C@@H](C)C(=O)NCC(=O)N[C@@H](CCCCN)C(=O)N[C@@H](CCCCN)C(=O)N[C@H](C(=O)N[C@H]1CSCc2ccc(nc2)-c2ccc(cn2)CSC[C@@H](C(=O)N[C@@H](CCCCN)C(=O)NCC(N)=O)NC(=O)CNC(=O)[C@H](CO)NC(=O)[C@H]([C@@H](C)CC)NC(=O)[C@H](CC(C)C)NC(=O)[C@H](CC(C)C)NC(=O)[C@H](CC(N)=O)NC1=O)[C@@H](C)CC [compound 80] (H-GIFSKLAGKKICNLLISGCKG-NH2; linker 12-19 via 2,2'Bipyridine(5,5'-diCH2); N-terminus assumed)
- Minimum Inhibitory Concentration (MIC) A. baumannii [1]: 32 mg/L
- Minimum Inhibitory Concentration (MIC) E. coli [2]: 32 mg/L
- Minimum Inhibitory Concentration (MIC) K. pneumoniae [3]: >64 mg/L
- Minimum Inhibitory Concentration (MIC) P. aeruginosa [4]: >64 mg/L
- Minimum Inhibitory Concentration (MIC) S. aureus [5]: >64 mg/L
- IC50 [6]: 49 mg/L (≈ 21 µM)

Structure (SMILES): CC[C@H](C)[C@H](NC(=O)CN)C(=O)N[C@@H](Cc1ccccc1)C(=O)N[C@@H](CO)C(=O)N[C@@H](CCCCN)C(=O)N[C@@H](CC(C)C)C(=O)N[C@@H](C)C(=O)NCC(=O)N[C@@H](CCCCN)C(=O)N[C@@H](CCCCN)C(=O)N[C@H]1CSCc2ccc(nc2)-c2ccc(cn2)CSC[C@@H](C(=O)N[C@@H](CC(C)C)C(=O)N[C@@H](CCCCN)C(=O)NCC(N)=O)NC(=O)[C@H](CO)NC(=O)[C@H]([C@@H](C)CC)NC(=O)[C@H](CC(C)C)NC(=O)[C@H](CC(C)C)NC(=O)[C@H](CC(N)=O)NC(=O)[C@H](CCCCN)NC1=O [compound 77] (H-GIFSKLAGKKCKNLLISCLKG-NH2; linker 11-18 via 2,2'Bipyridine(5,5'-diCH2); N-terminus assumed)
- Minimum Inhibitory Concentration (MIC) A. baumannii [1]: 4 mg/L
- Minimum Inhibitory Concentration (MIC) E. coli [2]: 4 mg/L
- Minimum Inhibitory Concentration (MIC) K. pneumoniae [3]: 32 mg/L
- Minimum Inhibitory Concentration (MIC) P. aeruginosa [4]: 32 mg/L
- Minimum Inhibitory Concentration (MIC) S. aureus [5]: >64 mg/L
- IC50 [6]: 159 mg/L (≈ 66.2 µM)

Structure (SMILES): CC[C@H](C)[C@H](NC(=O)CN)C(=O)N[C@@H](Cc1ccccc1)C(=O)N[C@@H](CO)C(=O)N[C@@H](CCCCN)C(=O)N[C@@H](CC(C)C)C(=O)N[C@@H](C)C(=O)N[C@H]1CSCc2ccc(nc2)-c2ccc(cn2)CSC[C@@H](C(=O)N[C@H](C(=O)N[C@@H](CO)C(=O)NCC(=O)N[C@@H](CC(C)C)C(=O)N[C@@H](CCCCN)C(=O)NCC(N)=O)[C@@H](C)CC)NC(=O)[C@H](CC(C)C)NC(=O)[C@H](CC(N)=O)NC(=O)[C@H](CCCCN)NC(=O)[C@H]([C@@H](C)CC)NC(=O)[C@H](CCCCN)NC(=O)[C@H](CCCCN)NC1=O [compound 66] (H-GIFSKLACKKIKNLCISGLKG-NH2; linker 8-15 via 2,2'Bipyridine(5,5'-diCH2))
- Minimum Inhibitory Concentration (MIC) A. baumannii [1]: 4 mg/L
- Minimum Inhibitory Concentration (MIC) E. coli [2]: 8 mg/L
- Minimum Inhibitory Concentration (MIC) K. pneumoniae [3]: 16 mg/L
- Minimum Inhibitory Concentration (MIC) P. aeruginosa [4]: 32 mg/L
- Minimum Inhibitory Concentration (MIC) S. aureus [5]: >64 mg/L
- IC50 [6]: 75 mg/L (≈ 31.2 µM)

Structure (SMILES): CC[C@H](C)[C@H](NC(=O)CN)C(=O)N[C@@H](Cc1ccccc1)C(=O)N[C@@H](CO)C(=O)N[C@@H](CCCCN)C(=O)N[C@@H](CC(C)C)C(=O)N[C@@H](C)C(=O)N[C@H]1CSCc2ccc3cc(ccc3c2)CSC[C@@H](C(=O)N[C@H](C(=O)N[C@@H](CO)C(=O)NCC(=O)N[C@@H](CC(C)C)C(=O)N[C@@H](CCCCN)C(=O)NCC(N)=O)[C@@H](C)CC)NC(=O)[C@H](CC(C)C)NC(=O)[C@H](CC(N)=O)NC(=O)[C@H](CCCCN)NC(=O)[C@H]([C@@H](C)CC)NC(=O)[C@H](CCCCN)NC(=O)[C@H](CCCCN)NC1=O [compound 67] (H-GIFSKLACKKIKNLCISGLKG-NH2; linker 8-15 via Naphthalene(2,6-diCH2))
- Minimum Inhibitory Concentration (MIC) A. baumannii [1]: 4 mg/L
- Minimum Inhibitory Concentration (MIC) E. coli [2]: 4 mg/L
- Minimum Inhibitory Concentration (MIC) K. pneumoniae [3]: 8 mg/L
- Minimum Inhibitory Concentration (MIC) P. aeruginosa [4]: 32 mg/L
- Minimum Inhibitory Concentration (MIC) S. aureus [5]: >64 mg/L
- IC50 [6]: 59 mg/L (≈ 24.9 µM)

Structure (SMILES): CC[C@H](C)[C@H](NC(=O)CN)C(=O)N[C@@H](Cc1ccccc1)C(=O)N[C@@H](CO)C(=O)N[C@@H](CCCCN)C(=O)N[C@@H](CC(C)C)C(=O)N[C@@H](C)C(=O)NCC(=O)N[C@@H](CCCCN)C(=O)N[C@@H](CCCCN)C(=O)N[C@H](C(=O)N[C@@H](CCCCN)C(=O)N[C@@H](CC(N)=O)C(=O)N[C@H]1CSCc2ccc(nc2)-c2ccc(cn2)CSC[C@@H](C(N)=O)NC(=O)[C@H](CCCCN)NC(=O)[C@H](CC(C)C)NC(=O)CNC(=O)[C@H](CO)NC(=O)[C@H]([C@@H](C)CC)NC(=O)[C@H](CC(C)C)NC1=O)[C@@H](C)CC [compound 84] (H-GIFSKLAGKKIKNCLISGLKC-NH2; linker 14-21 via 2,2'Bipyridine(5,5'-diCH2); N-terminus assumed)
- Minimum Inhibitory Concentration (MIC) A. baumannii [1]: 8 mg/L
- Minimum Inhibitory Concentration (MIC) E. coli [2]: 4 mg/L
- Minimum Inhibitory Concentration (MIC) K. pneumoniae [3]: 16 mg/L
- Minimum Inhibitory Concentration (MIC) P. aeruginosa [4]: 32 mg/L
- Minimum Inhibitory Concentration (MIC) S. aureus [5]: >64 mg/L
- IC50 [6]: 105 mg/L (≈ 43.7 µM)

Structure (SMILES): CC[C@H](C)[C@H](NC(=O)CN)C(=O)N[C@@H](Cc1ccccc1)C(=O)N[C@@H](CO)C(=O)N[C@@H](CCCCN)C(=O)N[C@@H](CC(C)C)C(=O)N[C@@H](C)C(=O)NCC(=O)N[C@@H](CCCCN)C(=O)N[C@@H](CCCCN)C(=O)N[C@H]1CSCc2ccc3cc(ccc3c2)CSC[C@@H](C(=O)N[C@@H](CC(C)C)C(=O)N[C@@H](CCCCN)C(=O)NCC(N)=O)NC(=O)[C@H](CO)NC(=O)[C@H]([C@@H](C)CC)NC(=O)[C@H](CC(C)C)NC(=O)[C@H](CC(C)C)NC(=O)[C@H](CC(N)=O)NC(=O)[C@H](CCCCN)NC1=O [compound 75] (H-GIFSKLAGKKCKNLLISCLKG-NH2; linker 11-18 via Naphthalene(2,6-diCH2); N-terminus assumed)
- Minimum Inhibitory Concentration (MIC) A. baumannii [1]: 4 mg/L
- Minimum Inhibitory Concentration (MIC) E. coli [2]: 4 mg/L
- Minimum Inhibitory Concentration (MIC) K. pneumoniae [3]: 16 mg/L
- Minimum Inhibitory Concentration (MIC) P. aeruginosa [4]: 16 mg/L
- Minimum Inhibitory Concentration (MIC) S. aureus [5]: 64 mg/L
- IC50 [6]: 98 mg/L (≈ 41.3 µM)
